Format in all cases: in vivo
Data set [1] deals with Male ICR mice. Briefly: Emergence test. Here is the method:
The emergence test was examined in a test box (35×35×30 cm) contained an aluminum cylinder (10 cm deep×6.5 cm diameter) located lengthwise along one wall, with the open end 10 cm from the corner. The test drug (0, 30 and 100 mg/kg) or ketamine (10 mg/kg) was administered 30 min prior to the test. Mice were placed into the cylinder and tested for 10 min and scored three behavioral parameters: the latency to leave the cylinder, the number of entries into the cylinder and the total time spent inside the cylinder.

Data set [2] relates to Male ICR mice. The data set is described as follows: Novel object recognition test (NORT). Here is the method:
The novel location recognition test (NLRT) and novel object recognition test (NORT) were examined in a Plexiglas open field box (35×35×30 cm) located in a sound-attenuated room and illuminated with a 20-W light bulb. The novel location and novel object recognition procedure consisted of habituation, training, and retention sessions. Habituation was conducted in two consecutive daily sessions, during which each mouse was allowed to individually explore the box in the absence of objects for 20 min. The animal is then removed from the arena and placed in its home cage. During the sample phase, each animal was placed in the box, and after 5 min, two identical sample objects (A+A) were simultaneously introduced in two corners. Each animal was allowed to explore the objects for 5 min. An animal was considered to explore the object when its head was facing the object at a distance of approximately 1 cm or less between the head and object or when it was touching or sniffing the object. The time spent exploring each object was recorded using stopwatches by an experimenter blind to the treatment condition.
After the sample phase, the mice were immediately returned to their home cages. The novel location recognition test was conducted 30 min after the training session. The animals were returned to the same box as during the sample phase, and one of the two objects was replaced with a novel local corner (A+A′) to test the location-based recognition memory. After 24 hours, novel object recognition test was performed. The mice are allowed to explore the open field with one identical sample object and a novel object to assess the novel object recognition memory (A+B). The animals were allowed to explore the box freely for 5 min, and the time spent exploring each object was recorded as described above. The objects and chambers were cleaned with 70% ethanol after each use. A preference index, a ratio of the amount of time spent exploring the original object or the novel location/object over the total time spent exploring both objects, was used to evaluate recognition memory. […]

In another data set the test system is Male Sprague-Dawley rats. Briefly: Ketamine intravenous self-administration (IVSA) under progressive ratio (PR) schedule. Here is the method: The dose-dependent effects of betaine and its metabolite DMG on ketamine addiction were evaluated by the intravenous self-administration (IVSA) paradigm under a progressive ratio (PR) schedule. Animals were implanted indwelling catheters flushing of ketamine (0.5 mg/kg/per infusion), termed the training dose, under a FR1 schedule during daily 3-h sessions. After acquisition of stable responding for ketamine (criterion of less than 20% deviation from the mean of the total number of reinforcers earned in three consecutive sessions for each rat), the ketamine reinforcement schedule was changed to FR2 and maintained until responding stabilized at least for 3 days. Then, the PR schedule was conducted. The lever presses required to gain an infusion was determined by: 5×e^(infusion number×0.2)−5 (i.e., 1, 2, 4, 6, 9, […], 15, 20, 25, 32, etc). […] The dose-dependent effects of betaine of self-administration of various doses of ketamine ([…]) were assessed by pretreatment 30 min prior to their daily operant session using a within-subject Latin square design.

Data set [3] concerns Male ICR mice. The data set is described as follows: Forced swim test (FST): duration of immobility, struggling and swimming. The settings on record: for duration of struggling in FST: betaine 20 mg/kg prior to ketamine 10 mg/kg.

Experimental findings from patent US11213495B2, “Method and composition for decreasing the psychotomimetic side effect and addictive disorder of ketamine” (NATIONAL HEALTH RESEARCH INSTITUTES, priority 2016, dated 2022) are described below.

Molecules are shown by their SMILES.

On to `CNC1(c2ccccc2Cl)CCCCC1=O` (racemic) [ketamine], for which, in the data set with Male ICR mice [1] (ketamine 10 mg/kg, post hoc), the “total time spent inside the cylinder” value was “significantly reduced”. The recognition index entry with Male ICR mice [2] (ketamine 30 mg/kg, retention session (24 h)) was “significantly reduced”. Moreover, the “ketamine consumption over the dose-response curve” value in the data set with Male Sprague-Dawley rats (ketamine 0.1-0.5 mg/kg/infusion, control (vehicle-treated) animals) is reported as “increase”.
Turning to `C[N+](C)(C)CC(=O)O` [betaine], the “anxiolytic effect in the emergence test” value with Male ICR mice [1] (betaine 30 and 100 mg/kg) was “did not show anxiolytic effect”. Further, the “recognition impairing effects of ketamine” value in the data set with Male ICR mice [2] (betaine 30 and 100 mg/kg 30 min prior to ketamine 30 mg/kg, retention session) was “significantly reversed”. Further, the “reduction of ketamine IVSA” value in the data set with Male Sprague-Dawley rats (betaine 100 mg/kg pretreatment, PR schedule) is recorded as 3-5 times. Besides, the IVSA of ketamine result in the data set with Male Sprague-Dawley rats (betaine pretreatment (30 and 100 mg/kg), ketamine 0.1-0.5 mg/kg/infusion, PR schedule) is “dose-dependently reduced”. Further, in the data set with Male Sprague-Dawley rats (betaine pretreatment, PR schedule), the “significant effective dose for reduction of ketamine IVSA” value came to 30 mg/kg. The “duration of struggling in FST” value is given as “significantly increased” with Male ICR mice [3] (day 1 test session, vs control) and “significantly increased” with Male ICR mice [3] (over both sessions). The “duration of swimming in FST” value with Male ICR mice [3] (betaine 10, 20 and 30 mg/kg pretreatment prior to ketamine 10 mg/kg, day 1 test session, vs control) is given as “significantly increased”; in the data set on Male ICR mice [3] (betaine 10, 20 and 30 mg/kg pretreatment prior to ketamine 10 mg/kg, over both sessions) it was “significantly increased”; in the data set on Male ICR mice [3] (betaine 20 and 30 mg/kg, over both sessions), “significantly increased”.
